Results taken from patent US11655235B2, “Pyrrolidine and piperidine compounds” (YUHAN CORPORATION, priority 2019, dated 2023).

Tests used:
Assay type in all cases: biochemical
recombinant human DPP7 = molecular target: T1, recombinant human DPP7 (Homo sapiens, UniProt Q9UHL4); assay: DPP7 inhibition, fluorogenic substrate Lys-Pro-AMC; settings: recombinant human DPP7
T1 construct: purchased R&D Systems
Method in brief: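 Inhibitors are titrated in an 8-point series into the enzyme's assay buffer (DMSO no more than 0.5%). Substrate cleavage at 25 °C is followed by fluorescence, excitation 380 nm and emission 460 nm. IC50 values come from a four-variable logistic model.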

recombinant human DPP9 = molecular target: T2, recombinant human DPP9 (Homo sapiens, UniProt Q86TI2); assay: DPP9 inhibition, fluorogenic substrate H-Gly-Pro-AMC; settings: recombinant human DPP9
T2 construct: purchased R&D Systems
Protocol: (§1) The compounds according to the present technology were evaluated in terms of the inhibitory effect on the activity of dipeptidyl peptidases including FAP by using a substrate producing fluorescent substances upon enzymatic decomposition. The test was conducted at 25° C. to get a final reaction volume of 100 μL in a 96 black well plate. […] Briefly, the test compounds were dissolved in dimethyl sulfoxide (DMSO) at a concentration of 20 mM and then subjected to serial dilution, thereby creating an 8 point curve. As for the control group, a 6 point curve created by serial dilution of Talabostat in the same buffer solution was used. Fluorescence intensity was measured using a microplate reader (Flexstation3, Molecular Devices) under the wavelength condition exciting at 380 nm and reading the emission at 460 nm. The inhibitory effect of the test compounds was measured as a decrease (%) in the signal rate as compared to the control group without any inhibitor. Data was fixed to a logistic model with four variables and IC50 value was calculated using GraphPad Prism program. As for recombinant human DPP4 (R&D Systems), 25 mM tris (pH 8.0) buffer as a buffer solution and H-Gly-Pro-AMC (Bachem) as a substrate were used. As for recombinant human DPP7 (R&D Systems), 25 mM MES (pH 6.0) buffer as a buffer solution and Lys-Pro-AMC (Bachem) as a substrate were used. As for recombinant human DPP8 (PBS Bioscience), as a buffer solution, a 10 mM tris (pH 7.4) buffer comprising 10 mM of magnesium chloride and 0.05% of Tween 20, and Z-Ala-Pro-AMC (BPS Bioscience) as a substrate were used. As for recombinant human DPP9 (R&D Systems), a 25 mM tris (pH 8.0) buffer as a buffer solution and H-Gly-Pro-AMC (Bachem) as a substrate were used. As for recombinant human PREP (R&D System), as a buffer solution, a 25 mM tris (pH 7.5) buffer comprising 250 mM sodium chloride and 2.5 mM DTT (Dithiolthreitol), and Z-Gly-Pro-AMC (Bachem) as a substrate were used. The evaluation was made by using 10 ng of DPP4, PDD7, and PREP, 20 ng of DPP8, and 50 ng of DPP9 based on the final reaction. In the evaluation of DPP4, the test compounds were subjected to serial dilution in a buffer under the condition containing up to 0.1% of DMSO. In the evaluation of DPP7, DPP8, DPP9, and PREP, the test compounds were subjected to serial dilution in each buffer under the condition containing up to 0.5% of DMSO.

recombinant human PREP = molecular target: T3, recombinant human PREP (Homo sapiens, UniProt P48147); assay: PREP inhibition, fluorogenic substrate Z-Gly-Pro-AMC; settings: Inhibitory Activity (IC50, nM) PREP, recombinant human PREP
T3 construct: purchased R&D System
T3 sequence (P48147 1-710): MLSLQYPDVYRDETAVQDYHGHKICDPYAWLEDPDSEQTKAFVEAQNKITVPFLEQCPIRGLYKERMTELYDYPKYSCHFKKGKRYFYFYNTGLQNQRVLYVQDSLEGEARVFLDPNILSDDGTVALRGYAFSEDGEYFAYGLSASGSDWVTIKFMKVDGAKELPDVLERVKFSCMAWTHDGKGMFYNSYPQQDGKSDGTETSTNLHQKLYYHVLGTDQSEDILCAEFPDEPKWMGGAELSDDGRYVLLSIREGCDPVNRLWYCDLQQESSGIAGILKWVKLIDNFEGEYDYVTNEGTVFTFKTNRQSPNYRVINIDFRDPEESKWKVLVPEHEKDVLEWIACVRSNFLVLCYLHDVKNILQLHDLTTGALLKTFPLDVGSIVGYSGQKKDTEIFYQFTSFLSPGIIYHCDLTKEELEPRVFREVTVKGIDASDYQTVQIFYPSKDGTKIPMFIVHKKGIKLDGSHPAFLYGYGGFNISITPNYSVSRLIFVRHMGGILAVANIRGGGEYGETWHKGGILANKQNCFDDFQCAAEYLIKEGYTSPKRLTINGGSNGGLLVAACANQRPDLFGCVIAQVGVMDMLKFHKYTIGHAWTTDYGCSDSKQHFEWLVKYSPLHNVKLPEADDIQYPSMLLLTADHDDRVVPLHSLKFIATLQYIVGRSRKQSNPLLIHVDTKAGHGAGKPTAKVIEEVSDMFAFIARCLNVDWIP
Protocol: as §1

Recombinant human FAP = molecular target: T4, Recombinant human FAP (Homo sapiens, UniProt Q12884); assay: FAP FRET assay, FGF21-sequence FRET peptide substrate; settings: FRET peptide with human FGF21 sequence, 6 μM, 37° C.
T4 construct: purchased R&D systems
T4 sequence (Q12884 1-760): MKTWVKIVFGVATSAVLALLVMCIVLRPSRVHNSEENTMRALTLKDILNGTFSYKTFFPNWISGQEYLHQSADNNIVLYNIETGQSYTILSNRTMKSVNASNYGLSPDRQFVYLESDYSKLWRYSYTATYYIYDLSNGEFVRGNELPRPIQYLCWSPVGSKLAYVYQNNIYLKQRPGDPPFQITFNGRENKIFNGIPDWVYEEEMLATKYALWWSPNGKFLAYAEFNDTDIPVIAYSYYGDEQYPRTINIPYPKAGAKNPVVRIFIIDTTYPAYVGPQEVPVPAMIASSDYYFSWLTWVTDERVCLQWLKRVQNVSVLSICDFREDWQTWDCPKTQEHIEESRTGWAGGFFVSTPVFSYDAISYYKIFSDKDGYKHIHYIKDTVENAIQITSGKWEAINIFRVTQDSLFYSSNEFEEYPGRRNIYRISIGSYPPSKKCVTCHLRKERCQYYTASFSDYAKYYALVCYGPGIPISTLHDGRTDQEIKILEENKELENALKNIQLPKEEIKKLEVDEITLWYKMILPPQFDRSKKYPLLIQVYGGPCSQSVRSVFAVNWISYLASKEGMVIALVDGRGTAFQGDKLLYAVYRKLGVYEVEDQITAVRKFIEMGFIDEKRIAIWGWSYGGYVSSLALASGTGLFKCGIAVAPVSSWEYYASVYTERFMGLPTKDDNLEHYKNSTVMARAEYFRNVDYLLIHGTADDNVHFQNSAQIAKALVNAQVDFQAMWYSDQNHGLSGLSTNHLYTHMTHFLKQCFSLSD
Method in brief: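 FRET peptide bearing human FGF21 sequence (6 μM final) cleaved by 10 ng recombinant human FAP at 37° C in HEPES pH 7.2 buffer with NaCl, BSA and EDTA, DMSO up to 0.1%. Signal-rate decrease versus uninhibited control fitted to a four-variable logistic model for IC50.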

DPP4 = DPP4 (Homo sapiens, UniProt P27487); assay: DPP4 inhibition, fluorogenic substrate H-Gly-Pro-AMC; parameters: purchased R&D Systems; settings: recombinant human DPP4
Chain of DPP4 (P27487 whole entry): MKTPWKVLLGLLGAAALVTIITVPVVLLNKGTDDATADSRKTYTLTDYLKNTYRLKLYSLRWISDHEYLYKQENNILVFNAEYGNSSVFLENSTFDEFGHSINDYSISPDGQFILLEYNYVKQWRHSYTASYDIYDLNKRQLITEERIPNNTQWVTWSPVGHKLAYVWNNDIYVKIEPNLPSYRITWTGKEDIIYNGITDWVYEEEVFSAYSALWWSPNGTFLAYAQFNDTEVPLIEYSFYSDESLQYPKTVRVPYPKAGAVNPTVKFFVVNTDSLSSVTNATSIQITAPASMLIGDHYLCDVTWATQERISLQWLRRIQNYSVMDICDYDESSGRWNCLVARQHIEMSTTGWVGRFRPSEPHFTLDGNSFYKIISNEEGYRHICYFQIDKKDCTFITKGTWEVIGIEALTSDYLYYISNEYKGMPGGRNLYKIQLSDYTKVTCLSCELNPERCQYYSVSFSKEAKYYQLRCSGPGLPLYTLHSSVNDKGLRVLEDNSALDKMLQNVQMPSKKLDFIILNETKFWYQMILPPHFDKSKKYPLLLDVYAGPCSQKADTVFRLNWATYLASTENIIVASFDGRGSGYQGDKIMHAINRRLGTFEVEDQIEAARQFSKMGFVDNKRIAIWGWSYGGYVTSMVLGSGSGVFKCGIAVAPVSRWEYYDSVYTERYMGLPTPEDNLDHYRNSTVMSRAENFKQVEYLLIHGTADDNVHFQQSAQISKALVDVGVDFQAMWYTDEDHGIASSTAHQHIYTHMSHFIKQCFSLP

T2 sequence (Q86TI2 whole entry): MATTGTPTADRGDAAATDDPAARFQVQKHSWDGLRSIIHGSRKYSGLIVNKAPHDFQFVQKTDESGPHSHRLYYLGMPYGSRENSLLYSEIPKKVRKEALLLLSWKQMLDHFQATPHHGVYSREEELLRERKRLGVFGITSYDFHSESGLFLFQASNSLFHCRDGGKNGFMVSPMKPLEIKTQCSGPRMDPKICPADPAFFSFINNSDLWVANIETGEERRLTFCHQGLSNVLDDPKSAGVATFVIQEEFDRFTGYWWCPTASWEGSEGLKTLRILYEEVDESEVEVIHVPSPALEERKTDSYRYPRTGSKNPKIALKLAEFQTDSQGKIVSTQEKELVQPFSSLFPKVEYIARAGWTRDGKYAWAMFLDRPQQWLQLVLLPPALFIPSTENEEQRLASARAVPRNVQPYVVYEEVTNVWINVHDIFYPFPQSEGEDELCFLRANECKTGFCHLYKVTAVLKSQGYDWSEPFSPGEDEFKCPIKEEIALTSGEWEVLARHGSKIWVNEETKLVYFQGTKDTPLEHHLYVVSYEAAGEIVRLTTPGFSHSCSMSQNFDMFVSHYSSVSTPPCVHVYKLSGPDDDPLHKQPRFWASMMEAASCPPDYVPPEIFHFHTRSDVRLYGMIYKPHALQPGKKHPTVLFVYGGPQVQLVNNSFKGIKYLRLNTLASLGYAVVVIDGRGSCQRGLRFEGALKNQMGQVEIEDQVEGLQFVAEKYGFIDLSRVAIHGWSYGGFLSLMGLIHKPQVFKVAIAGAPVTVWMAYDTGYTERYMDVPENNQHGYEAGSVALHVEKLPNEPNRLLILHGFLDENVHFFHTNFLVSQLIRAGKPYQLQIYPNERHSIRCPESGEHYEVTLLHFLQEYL

SMILES	IC50 (recombinant human DPP7) [nM]	IC50 (recombinant human DPP9) [nM]	IC50 (recombinant human PREP) [nM]	IC50 (Recombinant human FAP) [nM]	IC50 (DPP4) [nM]
N#C[C@@H]1C[C@H](F)CN1C(=O)CN1CC[C@@H](Nc2ccnc3c(Cl)cccc23)C1 [Example 189, (2S,4S)-4-fluoro-1-[2-[(3R)-3-[(8-chloro-4-quinolyl)amino]pyrrolidin-1-yl]acetyl]pyrrolidine-2-carbonitrile]	2580	1510	1150	10	3500
Cc1cccc2c(N[C@@H]3CCN(CC(=O)N4C[C@@H](F)C[C@H]4C#N)C3)ccnc12 [Example 190, (2S,4S)-4-fluoro-1-[2-[(3R)-3-[(8-methyl-4-quinolyl)amino]pyrrolidin-1-yl]acetyl]pyrrolidine-2-carbonitrile]	63.7	1390	1250	16.7	12500
COc1cc(N[C@@H]2CCN(CC(=O)N3CCC[C@H]3C#N)C2)c2cccnc2c1 [Example 198, (2S)-1-[2-[(3R)-3-[(7-methoxy-5-quinolyl)amino]pyrrolidin-1-yl]acetyl]pyrrolidine-2-carbonitrile]	901	14900	2920	8.6	9460
N#C[C@@H]1CCCN1C(=O)CN1CC[C@@H](Nc2cccc3ncc(Cl)cc23)C1 [Example 203, (2S)-1-[2-[(3R)-3-[(3-chloro-5-quinolyl)amino]pyrrolidin-1-yl]acetyl]pyrrolidine-2-carbonitrile]	3260	11200	12200	0.9	4660
COc1cnc2cccc(N[C@@H]3CCN(CC(=O)N4CCC[C@H]4C#N)C3)c2c1 [Example 204, (2S)-1-[2-[(3R)-3-[(3-methoxy-5-quinolyl)amino]pyrrolidin-1-yl]acetyl]pyrrolidine-2-carbonitrile]	3870	16200	11500	2.1	6200
COc1cnc2cccc(N[C@@H]3CCN(CC(=O)N4C[C@@H](F)C[C@H]4C#N)C3)c2c1 [Example 205, (2S,4S)-4-fluoro-1-[2-[(3R)-3-[(3-methoxy-5-quinolyl)amino]pyrrolidin-1-yl]acetyl]pyrrolidine-2-carbonitrile]	1760	3040	7500	2.6	796
N#C[C@@H]1C[C@H](F)CN1C(=O)CN1CC[C@@H](Nc2ccc3nc(C(F)(F)F)ccc3c2)C1 [Example 210, (2S,4S)-4-fluoro-1-[2-[(3R)-3-[[2-(trifluoromethyl)-6-quinolyl]amino]pyrrolidin-1-yl]acetyl]pyrrolidine-2-carbonitrile]	281	1300	1480	3.5	2700

Second part, the compound after the results:

IC50 (recombinant human DPP7) [nM]	IC50 (recombinant human DPP9) [nM]	IC50 (recombinant human PREP) [nM]	IC50 (Recombinant human FAP) [nM]	IC50 (DPP4) [nM]	SMILES
4120	23800	14700	5.2	13400	N#C[C@@H]1CCCN1C(=O)CN1CC[C@@H](Nc2cc(F)cc3ncccc23)C1 [Example 197, (2S)-1-[2-[(3R)-3-[(7-fluoro-5-quinolyl)amino]pyrrolidin-1-yl]acetyl]pyrrolidine-2-carbonitrile]
1700	27300	6090	6.3	5510	Cc1ccc(N[C@@H]2CCN(CC(=O)N3CCC[C@H]3C#N)C2)c2cccnc12 [Example 200, (2S)-1-[2-[(3R)-3-[(8-methyl-5-quinolyl)amino]pyrrolidin-1-yl]acetyl]pyrrolidine-2-carbonitrile]
1370	19200	12000	1.7	6510	Cc1cnc2cccc(N[C@@H]3CCN(CC(=O)N4CCC[C@H]4C#N)C3)c2c1 [Example 208, (2S)-1-[2-[(3R)-3-[(3-methyl-5-quinolyl)amino]pyrrolidin-1-yl]acetyl]pyrrolidine-2-carbonitrile]
